One test concerns AMPK. In words: Phosphorylation of AMPK in L6 myotubes (western blot). It is filed as cell-based, rat. The procedure:
In vitro cultured cell experiments were conducted according to a previously described protocol[6],[14]. Briefly, L6 myoblasts derived from rat skeletal muscle and of less than 40 passages were maintained in MEM supplemented with 10% foetal bovine serum (FBS) and antibiotics (100 U/ml penicillin and 100 μg/ml streptomycin) at 37 °C under a humidified atmosphere condition of 5% CO2 and 95% air. In each experiment, cells (2.2 × 10^4 cells/ml) were seeded into 96-well plates or 60-mm dishes for induction of differentiation into mature myotubes. After reaching confluence, cells were supplemented with differentiation medium containing 2% FBS and the same antibiotics for 7 days. Cells were used for each experiment after morphological analysis of differentiation status using phase-contrast microscopy. To explore the contribution of CaMKKβ or intracellular-free calcium ions in quercetin- and isorhamnetin-stimulated GLUT4 translocation, L6 cells were incubated in the presence or absence of 10 μM STO-609 and 25 μM […], respectively, for 30 min prior to treatment with either quercetin or isorhamnetin.
(§1) For in vitro cell culture experiments, after serum starvation for 18 h, myotubes were treated with various concentrations of quercetin or isorhamnetin (0.1–10 nM) for 15 min; DMSO (final 0.1%) was used as a vehicle control. As positive controls, 100 nM insulin, 1 mM AICAR, 10 nM leptin, or 100 ng/mL IL-15 were used for insulin, AMPK, JAK2/STAT, or JAK3/STAT signalling pathways, respectively. Cells were treated with insulin or AICAR for 15 min, leptin for 60 min, or IL-15 for 24 h. Whole protein and plasma membrane fractions were prepared from myotubes, as previously described. For in vivo experiment, plasma membrane fraction and tissue lysate of soleus muscle were prepared.
(§2) Translocation of GLUT4 to the plasma membrane, as well as expression and phosphorylation levels of GLUT4-related regulators were estimated by western blot analysis. Briefly, equal amounts of proteins were separated by sodium dodecyl sulfate-polyacrylamide gel electrophoresis (SDS-PAGE). Separated proteins were transferred onto a polyvinylidene fluoride membrane and nonspecific binding sites were blocked using either Blocking One (to detect unphosphorylated proteins) or Blocking One-P (to detect phosphoproteins). The membrane was incubated overnight with an appropriate primary antibody for GLUT4 (1:5000), IR (1:10000), p-IRS1 (1:5000), IRS1 (1:5000), p-PI3K (1:5000), PI3K (1:10000), p-Akt (1:5000), Akt (1:10000), p-AMPKα (1:5000), AMPKα (1:10000), p-ACC (1:5000), ACC (1:10000), p-LKB1 (1:5000), LKB1 (1:10000), p-JAK2 (1:5000), JAK2 (1:5000), p-JAK3 (1:5000), JAK3 (1:10000), p-STAT1 (1:5000), STAT1 (1:10000), p-STAT3 (1:5000), STAT3 (1:10000), p-STAT5 (1:5000), STAT5 (1:10000), or β-actin (1:20000), and subsequently treated with the corresponding horseradish peroxidase-conjugated secondary antibody (1:50000) for 1 h. Specific immune complexes were developed using ImmunoStar® LD and detected with an ATTO Light-Capture II Western Blotting Detection System. Individual band density was calculated by ImageJ and normalized to the control.
42 after morphological analysis of differentiation status using phase-contrast microscopy.
43 Preparation of whole protein and plasma membrane fractions After serum starvation
44 for 18 h, myotubes were treated with various concentrations of quercetin or isorhamnetin (1–
45 10 μM) for 15 min; DMSO (final 0.1%) was used as a vehicle control. As positive controls, […]
In general terms: In western blotting, separated proteins are transferred to a membrane and probed.

In the next test the test system is GLUT4. In words: GLUT4 translocation in L6 myotubes after siRNA knockdown of AMPKα, JAK2 or JAK3. It is filed as cell-based, rat. The note with it: 1 nM quercetin or isorhamnetin. The procedure: as §1, §2
Mature myotubes were cultured in antibiotic-free medium and transfected with siRNA at a final concentration of 50 nM using Lipofectamine RNAiMAX transfection reagent according to the manufacturer’s instructions. In brief, mature myotubes were transfected with siRNA in Opti-MEM for 48 h. Subsequently, the medium was changed to fresh Opti-MEM and cells were treated with the indicated concentrations of quercetin or isorhamnetin.

Results on four molecules are retold here after article PMC6389993, “Quercetin and its metabolite isorhamnetin promote glucose uptake through different signalling pathways in myotubes” (Scientific Reports, 2019).

Consider `CC(=O)OCOC(=O)CN(CC(=O)OCOC(C)=O)c1ccccc1OCCOc1ccccc1N(CC(=O)OCOC(C)=O)CC(=O)OCOC(C)=O` [BAPTA-AM, 1,2-Bis (2-aminophenoxy) ethane-N,N,N′,N′-tetraacetic acid tetrakis (acetoxymethyl ester), reference compound], for which the “effect on quercetin-induced AMPK phosphorylation” value with AMPK (25 μM BAPTA-AM for 30 min prior to 1 nM quercetin) was “did not affect”.

“leptin: positive control for JAK2/STAT signalling pathway”: the “compound-induced GLUT4 translocation after siRNA for JAK2” value in the test on GLUT4 (siJAK2 50 nM 48 h, 10 nM leptin) was “abolished”.

For `O=C(O)c1ccc2c3c1cccc3c(=O)n1c3ccccc3nc21` [STO-609, reference compound], the “effect on quercetin-induced AMPK phosphorylation” value in the test on AMPK (10 μM STO-609 for 30 min prior to 1 nM quercetin) was “abolished”.

With `NC(=O)c1ncn([C@@H]2O[C@H](CO)[C@@H](O)[C@H]2O)c1N` [AICAR, 5-aminoimidazole-4-carboxyamide ribonucleoside, reference compound], the “compound-induced GLUT4 translocation after siRNA for AMPK” value with GLUT4 (siAMPKα 50 nM 48 h, 1 mM AICAR) is on record as “almost completely abolished”.
